Results: publication PMC2874192 (Cancer research, 2010)

Assays:
[1] = system: U87 and U87-stb-CXCR4 glioblastoma xenografts; assay type: in vivo; conditions: whole body image at 90 min
[2] = system: U87 and U87-stb-CXCR4 glioblastoma xenografts; test: Ex vivo biodistribution in subcutaneous brain tumor model; parameters: species or system NOD/SCID mice; conditions: 740 kBq, 90 min after injection
[3] = no reference given; cited from earlier work
[4] = humans, within 24 h, primarily through kidneys; cited from earlier work
CXCR4 receptor = conditions: Cu-bound vs unbound AMD3100; cited from earlier work

## [Cl][64Cu][Cl] [[^64Cu]CuCl2]
[1]
  distribution of radiotracer (PET): uniform distribution
[2]
  radioactivity distribution (ex vivo biodistribution): uniform

## c1cc(CN2CCCNCCNCCCNCC2)ccc1CN1CCCNCCNCCCNCC1 [AMD3100]
[3]
  plasma protein bound: ~58%
[4]
  drug eliminated as parent: ~70%
CXCR4 receptor
  increase of affinity to the CXCR4 receptor by Cu bound to the cyclam: 6 fold
